Data from the NIST ThermoML archive (doi:10.1021/acs.jced.5b00670).

Tests used:
[1] = 298.15 K, 101.33 kPa, Liquid; for viscosity: Concentric cylinders viscometry; for mass density: Vibrating tube method
[2] = mn = molality of the nth substance listed, in mol/kg; conditions: 298.15 K, 101.33 kPa, Liquid, Alternating current cell with electrodes

CC#N [acetonitrile]
[1]
Conditions	mass density [kg/m3]	viscosity [mPa·s]
–	776.68	0.34

NC=O [formamide]
[1]
Conditions	mass density [kg/m3]	viscosity [mPa·s]
–	1129.22	3.3

CO [methanol]
[1]
Conditions	mass density [kg/m3]	viscosity [mPa·s]
–	786.61	0.55

C[N+](=O)[O-] [nitromethane]
[1]
Conditions	mass density [kg/m3]	viscosity [mPa·s]
–	1130.15	0.62

CCCC[P+](CCCC)(CCCC)CCCC.CS(=O)(=O)[O-] [tetrabutylphosphonium methanesulfonate] + CC#N
[2]
Conditions	molar conductivity [S·m2/mol]
m1 = 0.000975	0.0159
m1 = 0.001787	0.0156
m1 = 0.002451	0.0154
m1 = 0.003035	0.0153
m1 = 0.00354	0.0151
m1 = 0.00398	0.015
m1 = 0.004717	0.0149
m1 = 0.005305	0.0148
m1 = 0.006188	0.0146
m1 = 0.007186	0.0145
m1 = 0.00808	0.0143
m1 = 0.008774	0.0142

CCCC[P+](CCCC)(CCCC)CCCC.CS(=O)(=O)[O-] [tetrabutylphosphonium methanesulfonate] + CO
[2]
Conditions	molar conductivity [S·m2/mol]
m1 = 0.000912	0.00826
m1 = 0.001456	0.00793
m1 = 0.001998	0.00769
m1 = 0.002473	0.00752
m1 = 0.002947	0.00737
m1 = 0.003599	0.00721
m1 = 0.00425	0.007
m1 = 0.004926	0.00686
m1 = 0.005759	0.0066
m1 = 0.006723	0.00645
m1 = 0.007795	0.0062
m1 = 0.008664	0.00603

CCCC[P+](CCCC)(CCCC)CCCC.CS(=O)(=O)[O-] [tetrabutylphosphonium methanesulfonate] + C[N+](=O)[O-]
[2]
Conditions	molar conductivity [S·m2/mol]
m1 = 0.000865	0.00765
m1 = 0.001335	0.00741
m1 = 0.00177	0.00723
m1 = 0.002409	0.00698
m1 = 0.002979	0.00674
m1 = 0.003623	0.00653
m1 = 0.004197	0.0063
m1 = 0.004926	0.00611
m1 = 0.005713	0.00588
m1 = 0.006624	0.00563
m1 = 0.007619	0.00541
m1 = 0.008608	0.00518

CCCC[P+](CCCC)(CCCC)CCCC.CS(=O)(=O)[O-] [tetrabutylphosphonium methanesulfonate] + NC=O
[2]
Conditions	molar conductivity [S·m2/mol]
m1 = 0.00084	0.00215
m1 = 0.001471	0.00201
m1 = 0.002032	0.00186
m1 = 0.002641	0.00177
m1 = 0.003191	0.00167
m1 = 0.003793	0.00159
m1 = 0.004583	0.00148
m1 = 0.005305	0.00139
m1 = 0.006146	0.0013
m1 = 0.007072	0.00119
m1 = 0.007937	0.00113
m1 = 0.008497	0.00107

CCCC[P+](CCCC)(CCCC)CCCC.CS(=O)(=O)[O-] [tetrabutylphosphonium methanesulfonate] + O
[2]
Conditions	molar conductivity [S·m2/mol]
m1 = 0.000818	0.00412
m1 = 0.001471	0.00388
m1 = 0.002032	0.00366
m1 = 0.002641	0.00348
m1 = 0.003191	0.00334
m1 = 0.003793	0.00317
m1 = 0.004583	0.003
m1 = 0.005305	0.00288
m1 = 0.006146	0.00274
m1 = 0.007072	0.00258
m1 = 0.007937	0.00245
m1 = 0.008497	0.0024

O [water]
Conditions	viscosity [mPa·s]
[1]	0.89
